From PMC12562379, “Facile Synthesis of N-vinylindoles via Knoevenagel Condensation: Molecular Features and Biological Activities” (International Journal of Molecular Sciences, 2025)
In brackets after ≈: the same amount, converted by molar mass. Structures can show the parent of a compound that is named as a salt. Where two headings read alike, the source gives them in different places.

What was measured:
AGS = assay: MTT assay, cytotoxic activity; type: cell-based, human; settings: Homo sapiens, 24 h, n = 12
Experimental: (§1) The human ovarian SKOV-3, gastric adenocarcinoma AGS, cervical HeLa cell lines and non-cancerous keratinocytes HaCaT were obtained from the American Type Culture Collection (ATCC, Manassas, VA, USA). The cell lines were cultured in McCoy’s Medium, Dulbecco’s Modified Eagle’s Medium/F12, and DMEM, respectively (Merck Millipore, Burlington, MA, USA). Penicillin (100 units/mL), streptomycin ([…]), and 10% (v/v) fetal bovine serum (FBS) were added to all the media. The cells were incubated at 37 °C and 5% CO2.
(§2) To estimate the cytotoxic activity of the obtained compounds 2a-i, MTT assay was used. The cells (5 × 10^3 cells/well) were treated with the compounds in a range of concentrations 1–150 µg/mL. […] After 24 h, MTT solution (0.5 mg/mL) was added to the cells. Formazan crystals were dissolved in DMSO and the absorbance was measured with a microtiter plate reader (Epoch, BioTek Instruments, Winooski, VT, USA).

HeLa = assay: MTT assay, cytotoxic activity; type: cell-based, human; settings: Homo sapiens, 24 h, n = 12
Experimental: as §1, §2

SKOV-3 = assay: MTT assay, cytotoxic activity; type: cell-based, human; settings: Homo sapiens, SK-OV-3; SKOV-3, MTT, 24 h, n = 12
Experimental: as §1, §2

HaCaT = assay: MTT assay, cytotoxic activity on non-cancerous keratinocytes; type: cell-based; settings: Homo sapiens, 24 h, n = 12
Experimental: as §1, §2

S. aureus ATCC 6535 = assay: Microbroth dilution assay; type: cell-based; settings: Staphylococcus aureus, ATCC6535
S. aureus MRSA 12673 = assay: Microbroth dilution assay; type: cell-based; settings: Staphylococcus aureus
E. coli ATCC 8739 = assay: Microbroth dilution assay; type: cell-based; settings: Escherichia coli, ATCC8739
Experimental: (§3) The minimum inhibitory concentration (MIC) and minimum bactericidal/fungicidal concentration (MBC/MFC) of the tested compounds were determined by the microbroth dilution technique using 96-well plates based on the methodology described in the EUCAST (European Committee on Antimicrobial Susceptibility Testing) standards. Reference and clinical strains of Gram-positive (Staphylococcus aureus ATCC 6538, Staphylococuccus aureus MRSA 6347) and Gram-negative (Escherichia coli ATCC 8739) bacteria, and yeast (Candida albicans ATCC 10231, Candida glabrata ATCC 2001) were used for the assay. The studies were carried out in the Mueller–Hinton (MH) broth for bacteria and RPMI 1640 broth + MOPS (Sigma-Aldrich, Poland) buffer in the case of yeast. The dry test samples were dissolved in DMSO (dimethyl sulfoxide), resulting in a final concentration of 15 mg/mL, and then diluted in a geometric progression. Ampicillin (Sigma-Aldrich, Poland) acted as a control sample (512 to 4 µg/mL) for bacteria and ketoconazole (128 to 1 µg/mL) (Sigma-Aldrich, Poland) acted as a control sample for yeast. The cultures of microorganisms were prepared by transferring cells from the stock cultures to tubes with the appropriate broth and incubated with agitation in an aerobic atmosphere for 18 ± 2 h at 35 ± 1 °C; next, they were diluted to achieve an optical density corresponding to 5 × 105 (bacteria) or 2 × 105 (yeast) colony-forming units per mL (cfu/mL). An appropriate media (96 µL), along with the tested compounds with a final concentration range of 300–3.1 µg/mL (4 µL) and next microbial suspension (100 µL) were added to each well. Plates with samples were incubated in adequate conditions described above and microbial growth was assessed. […] (>90%; ketoconazole) but 50% (for other compounds) inhibits visible growth of yeasts. Next, as a control of microbial viability, 100 µL of the samples from each well without growth was inoculated on the MH or RPMI agar plates and incubated for 18 ± 2 h at 35 ± 1 °C and finally, the CFU was counted. The MBC/MFC was determined as the minimum concentration of compounds required to kill 99.9% the organisms.

C. albicans ATCC 10231 = assay: Microbroth dilution assay; type: cell-based, Candida albicans; settings: Candida albicans, ATCC10231, C. albicans ATCC 10231; for MFC: read-out: MFC; for MIC: read-out: MIC
Experimental: as §3

C. glabrata ATCC 2001 = assay: Microbroth dilution assay; type: cell-based, Candida glabrata; settings: Nakaseomyces glabratus, ATCC2001
Experimental: as §3

[1] = target: T1, AGE2-BSA/sRAGE interaction (Homo sapiens, UniProt Q15109); assay: ELISA AGE2-BSA/sRAGE inhibitory screening; type: binding; settings: for Inhibition (%) of AGE2-BSA/sRAGE interaction: 100 µM
T1 construct: purchased Creative BioMart
T1 sequence (Q15109 23-342 limits assumed): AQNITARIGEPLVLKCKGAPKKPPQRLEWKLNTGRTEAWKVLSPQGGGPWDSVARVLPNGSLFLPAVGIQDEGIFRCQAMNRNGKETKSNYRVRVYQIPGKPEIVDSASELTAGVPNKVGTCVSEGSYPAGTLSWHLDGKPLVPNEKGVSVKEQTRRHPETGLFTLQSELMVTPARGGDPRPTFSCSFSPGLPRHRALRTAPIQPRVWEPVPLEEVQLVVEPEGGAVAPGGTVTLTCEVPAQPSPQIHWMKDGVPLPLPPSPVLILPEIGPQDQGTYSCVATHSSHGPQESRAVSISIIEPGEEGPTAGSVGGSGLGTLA
Experimental: The in vitro inhibitor screening of AGE2 (glyceraldehyde-modified AGE)-sRAGE interaction (soluble RAGE) was performed using a 96-well AGE-BSA-coated plate (Creative BioMart® ELISA kit, Shirley, NY, USA), according to the manufacturer’s instructions. 100 UA/mL soluble RAGE (sRAGE) was incubated with 100 μM of the tested compounds or 0.05% DMSO as a negative control on an AGE2-BSA-coated plate at room temperature for 60 min, shaking at 300 rpm on an orbital microplate shaker. After incubation, the wells were washed 4 times with wash buffer and horseradish peroxidase (HRP)-labeled anti-RAGE antibody was added and the plate was further incubated at room temperature for 60 min, shaking at 300 rpm on an orbital microplate shaker. After incubation, the wells were washed 4 times with wash buffer and the Substrate Reagent was added to each well. After an incubation at room temperature for 5 min, the HRP-labeled antibody sRAGE-AGE complex was then detected by measuring the absorbance at 450 nm using the microplate reader Varioskan (Thermo Fischer Scientific). These experiments were repeated two times.

[2] = tested on: HeLa, SKOV-3, AGS (and HaCaT) cell lines; assay: MTT assay, ranges stated over several cell lines; type: cell-based, human; settings: Homo sapiens, range over the cancer cell lines HeLa, SKOV-3 and AGS
Experimental: as §1, §2

[3] = tested on: S. aureus ATCC 6535, S. aureus MRSA 12673 and other tested bacterial and yeast strains; assay: Microbroth dilution assay, ranges stated over several strains; type: cell-based; settings: all tested microorganisms
[4] = S. aureus MRSA 12673, read-out: MIC
[5] = E. coli ATCC 8739, read-out: MIC

Compound | MIC (S. aureus ATCC 6535) | MIC (S. aureus MRSA 12673; [4]) | MIC (E. coli ATCC 8739; [5]) | MIC (C. albicans ATCC 10231) | MIC (C. glabrata ATCC 2001) | inhibition at 100 µM [1] | Inhibition (%) of AGE2-BSA/sRAGE interaction [1] | IC50 (AGS) | IC50 (HeLa) | IC50 (SKOV-3) | IC50 (HaCaT) | MBC (S. aureus ATCC 6535) | MBC (S. aureus MRSA 12673; S. aureus MRSA 12673) | MBC (E. coli ATCC 8739; E. coli ATCC 8739) | MFC (C. albicans ATCC 10231) | MFC (C. glabrata ATCC 2001) | IC50 [2] | MBC/MFC [3] | MIC (S. aureus MRSA 12673; MRSA) | MIC (E. coli ATCC 8739)
CC(=O)N1CCN(c2ccc(OCC3COC(Cn4ccnc4)(c4ccc(Cl)cc4Cl)O3)cc2)CC1 (stereo not drawn) [Ketoconazole, reference compound] | – | – | – | > 128 µg/mL | 64 µg/mL (≈ 120 µM) | – | – | – | – | – | – | – | – | – | > 128 µg/mL | 128 µg/mL (≈ 241 µM) | – | – | – | –
CC1(C)S[C@@H]2[C@H](NC(=O)[C@H](N)c3ccccc3)C(=O)N2[C@H]1C(=O)O [Ampicillin, reference compound] | 8 µg/mL (≈ 22.9 µM) | – | – | – | – | – | – | – | – | – | – | 8 µg/mL (≈ 22.9 µM) | 512 µg/mL (≈ 1470 µM) | 128 µg/mL (≈ 366 µM) | – | – | – | – | 512 µg/mL (≈ 1470 µM) | 128 µg/mL (≈ 366 µM)
CC[C@]1(O)C[C@@H]2CN(CCc3c([nH]c4ccccc34)[C@@](C(=O)OC)(c3cc4c(cc3OC)N(C)[C@H]3[C@@](O)(C(=O)OC)[C@H](OC(C)=O)[C@]5(CC)C=CCN6CC[C@]43[C@@H]65)C2)C1 [Vinblastine sulfate, reference compound] | – | – | – | – | – | – | – | – | 0.005 ± 0.0004 µg/mL | 0.008 ± 0.0003 µg/mL | – | – | – | – | – | – | – | – | – | –

Now from value to molecule, other results behind:

MIC (S. aureus ATCC 6535) | MIC (S. aureus MRSA 12673; [4]) | MIC (E. coli ATCC 8739; [5]) | MIC (C. albicans ATCC 10231) | MIC (C. glabrata ATCC 2001) | inhibition at 100 µM [1] | Inhibition (%) of AGE2-BSA/sRAGE interaction [1] | Compound | IC50 (AGS) | IC50 (HeLa) | IC50 (SKOV-3) | IC50 (HaCaT) | MBC (S. aureus ATCC 6535) | MBC (S. aureus MRSA 12673; S. aureus MRSA 12673) | MBC (E. coli ATCC 8739; E. coli ATCC 8739) | MFC (C. albicans ATCC 10231) | MFC (C. glabrata ATCC 2001) | IC50 [2] | MBC/MFC [3] | MIC (S. aureus MRSA 12673; MRSA) | MIC (E. coli ATCC 8739)
120 µg/mL (≈ 356 µM) | 120 µg/mL (≈ 356 µM) | > 240 µg/mL | > 240 µg/mL | 240 µg/mL (≈ 711 µM) | 36.4% | 36.3% | C(=C(\C1=NCCN1)n1ccc2ccccc21)/c1cccc2ccccc12 [Compound 2h, (Z)-1-[1-(4,5-dihydro-1H-imidazol-2-yl)-2-(naphthalen-1-yl)vinyl]-1H-indole] | 18.9 ± 1.81 µg/mL (≈ 56 µM) | 10.1 ± 1.12 µg/mL (≈ 29.9 µM) | 10.39 ± 0.1 µg/mL (≈ 30.8 µM) | 17.9 ± 1.93 µg/mL (≈ 53.2 µM) | 240 µg/mL (≈ 711 µM) | 240 µg/mL (≈ 711 µM) | > 240 µg/mL | > 240 µg/mL | 240 µg/mL (≈ 711 µM) | 10.1 to 18.9 µg/mL (≈ 29.9 to 56 µM) | ≥ 240 µg/mL | – | –
110 µg/mL (≈ 347 µM) | > 220 µg/mL | 220 µg/mL (≈ 693 µM) | > 220 µg/mL | > 220 µg/mL | – | – | COc1ccc(/C=C(/C2=NCCN2)n2ccc3ccccc32)cc1 [Compound 2c, (Z)-1-[1-(4,5-dihydro-1H-imidazol-2-yl)-2-(4-methoxyphenyl)vinyl]-1H-indole] | 10.29 ± 0.08 µg/mL (≈ 32.4 µM) | 7.86 ± 0.59 µg/mL (≈ 24.8 µM) | 8.8 ± 0.46 µg/mL (≈ 27.7 µM) | 9.11 ± 1.58 µg/mL (≈ 28.7 µM) | 110 µg/mL (≈ 347 µM) | > 220 µg/mL | > 220 µg/mL | > 220 µg/mL | > 220 µg/mL | – | – | – | –
55 µg/mL (≈ 182 µM) | 220 µg/mL (≈ 730 µM) | 220 µg/mL (≈ 730 µM) | 220 µg/mL (≈ 730 µM) | 220 µg/mL (≈ 730 µM) | – | devoid of activity and lack | Cc1ccc(/C=C(/C2=NCCN2)n2ccc3ccccc32)cc1 [Compound 2b, (Z)-1-[1-(4,5-dihydro-1H-imidazol-2-yl)-2-(p-tolyl)vinyl]-1H-indole] | 16.2 ± 1.2 µg/mL (≈ 53.8 µM) | 8.19 ± 0.4 µg/mL (≈ 27.2 µM) | 9.69 ± 0.62 µg/mL (≈ 32.2 µM) | 12.1 ± 0.55 µg/mL (≈ 40.1 µM) | 110 µg/mL (≈ 365 µM) | > 220 µg/mL | > 220 µg/mL | > 220 µg/mL | > 220 µg/mL | 8.19 to 16.2 µg/mL (≈ 27.2 to 53.8 µM) | – | – | –
